Measured values as given in PubChem BioAssay (NCI).
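How tested: cells in 96-well plates exposed to compound for 48 hours at five concentrations. TGI marks complete inhibition of growth.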

Legend:
Assay in all cases: NCI tumour cell line growth inhibition, 48 h
NCI-H23 lung = tested on: NCI-H23 lung
SR leukemia = tested on: SR leukemia
U251 CNS = tested on: U251 CNS
RXF 393 renal = tested on: RXF 393 renal
HL-60(TB) leukemia = tested on: HL-60(TB) leukemia
MDA-MB-435 = tested on: MDA-MB-435
SK-MEL-5 melanoma = tested on: SK-MEL-5 melanoma
SNB-19 CNS = tested on: SNB-19 CNS
A498 renal = tested on: A498 renal
COLO 205 colon = tested on: COLO 205 colon
SK-MEL-2 melanoma = tested on: SK-MEL-2 melanoma
SW-620 colon = tested on: SW-620 colon
KM12 colon = tested on: KM12 colon
RPMI-8226 leukemia = tested on: RPMI-8226 leukemia
HCT-15 colon = tested on: HCT-15 colon
PC-3 prostate = tested on: PC-3 prostate
LOX IMVI melanoma = tested on: LOX IMVI melanoma
HOP-92 NSCLC = tested on: HOP-92 NSCLC
NCI-H522 lung = tested on: NCI-H522 lung

SMILES	TGI (NCI-H23 lung)	TGI (SR leukemia)	TGI (U251 CNS)	TGI (RXF 393 renal)	TGI (HL-60(TB) leukemia)	TGI (MDA-MB-435)	TGI (SK-MEL-5 melanoma)	TGI (SNB-19 CNS)	TGI (A498 renal)	TGI (COLO 205 colon)	TGI (SK-MEL-2 melanoma)	TGI (SW-620 colon)	TGI (KM12 colon)	TGI (RPMI-8226 leukemia)	TGI (HCT-15 colon)	TGI (PC-3 prostate)	TGI (LOX IMVI melanoma)	TGI (HOP-92 NSCLC)	TGI (NCI-H522 lung)
CSc1nn(C)cc2ncnc1-2	> 100 µM	> 100 µM	> 100 µM	> 100 µM	> 100 µM	> 100 µM	> 100 µM	> 100 µM	> 100 µM	> 100 µM	> 100 µM	> 100 µM	> 100 µM	> 100 µM	> 100 µM	> 100 µM			
O=C1Cc2nc(CO)c(CO)c(CO)c2CO1	> 100 µM		> 100 µM		> 100 µM		> 100 µM	> 100 µM	> 100 µM	> 100 µM	> 100 µM	> 100 µM	> 100 µM	> 100 µM	> 100 µM		> 100 µM	> 100 µM	> 100 µM
COc1cc2cc(C(=O)N3CC(CCl)c4ccc([N+](=O)[O-])cc43)[nH]c2c(OC)c1OC (stereo unspecified)	> 100 µM		> 100 µM	> 100 µM	> 100 µM	> 100 µM	> 100 µM	> 100 µM	> 100 µM	> 100 µM	> 100 µM	> 100 µM	> 100 µM	> 100 µM	> 100 µM	> 100 µM	> 100 µM	> 100 µM	> 100 µM
CNC1c2ccccc2C(=O)c2cc3c(cc21)OCCOCCOCCOCCO3 (stereo unspecified)		96.2 µM	> 100 µM		66.6 µM	> 100 µM	> 100 µM	> 100 µM		> 100 µM		> 100 µM	> 100 µM	> 100 µM	> 100 µM	> 100 µM			> 100 µM
Cc1ccc(OCC2OC(n3cnc4nc(Nc5ccc(Cl)c(Cl)c5)nc(Cl)c43)CC2Oc2ccc(C)cc2)cc1 (stereo unspecified)	> 100 µM		> 100 µM	> 100 µM		> 100 µM	> 100 µM	> 100 µM		> 100 µM	> 100 µM	> 100 µM	> 100 µM	> 100 µM	> 100 µM	> 100 µM			
C/C(N)=C/C(=O)c1[nH]c(C(=O)O)cc1C1CCN(Cc2ccccc2)C1=O (stereo unspecified)	47.9 µM		> 100 µM	45.2 µM		> 100 µM	33.8 µM	> 100 µM	> 100 µM	65.1 µM	77.6 µM	> 100 µM	> 100 µM	44.7 µM	> 100 µM	> 100 µM		55 µM	49.2 µM
CC(O)CN1c2ccccc2Sc2ccccc21 (stereo unspecified)	> 100 µM		> 100 µM	> 100 µM		> 100 µM	> 100 µM	> 100 µM	> 100 µM	> 100 µM		> 100 µM	> 100 µM		> 100 µM	> 100 µM	> 100 µM	> 100 µM	> 100 µM
